Data taken from patent US9580390B2, “Indazole compounds as kinase inhibitors and method of treating cancer with same” (University Health Network, priority 2011, dated 2017).
Read-outs that look alike come from different tables or passages of the source.

Assays:
human TTK = molecular target: T1, human TTK (Homo sapiens, UniProt P33981); test: TTK inhibition assay (indirect ELISA); type: biochemical; settings: read-out: TTK IC50 Range
T1 construct: amino terminal GST fusion of full length human TTK; purchased Invitrogen
T1 sequence (P33981 1-857): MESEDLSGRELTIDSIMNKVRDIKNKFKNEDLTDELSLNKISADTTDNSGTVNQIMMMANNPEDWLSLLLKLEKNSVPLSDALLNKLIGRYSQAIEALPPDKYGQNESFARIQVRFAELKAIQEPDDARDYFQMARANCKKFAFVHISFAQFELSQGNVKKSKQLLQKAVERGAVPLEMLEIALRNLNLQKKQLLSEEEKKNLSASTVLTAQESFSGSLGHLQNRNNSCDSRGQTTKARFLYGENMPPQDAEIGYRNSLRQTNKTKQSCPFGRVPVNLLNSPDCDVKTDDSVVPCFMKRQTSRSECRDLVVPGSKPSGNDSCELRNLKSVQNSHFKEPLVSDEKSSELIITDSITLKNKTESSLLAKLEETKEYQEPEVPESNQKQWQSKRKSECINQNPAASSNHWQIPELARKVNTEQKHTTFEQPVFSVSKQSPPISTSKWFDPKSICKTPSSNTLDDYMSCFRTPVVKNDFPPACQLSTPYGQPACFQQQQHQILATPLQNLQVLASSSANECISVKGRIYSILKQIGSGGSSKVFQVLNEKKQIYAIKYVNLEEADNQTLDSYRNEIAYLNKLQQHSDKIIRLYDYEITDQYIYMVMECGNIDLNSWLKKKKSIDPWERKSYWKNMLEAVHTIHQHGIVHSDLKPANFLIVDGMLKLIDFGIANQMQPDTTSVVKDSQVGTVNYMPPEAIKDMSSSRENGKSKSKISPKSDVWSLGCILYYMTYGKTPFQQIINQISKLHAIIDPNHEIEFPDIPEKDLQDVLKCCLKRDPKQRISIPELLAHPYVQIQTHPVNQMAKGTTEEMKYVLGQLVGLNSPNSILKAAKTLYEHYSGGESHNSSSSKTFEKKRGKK

[1] = system: colon cancer cells (HCT116); test: Cancer cell line growth inhibition (SRB assay); type: cell-based; settings: Homo sapiens, HCT-116, read-out: Cancer Cell Line GI50 Range HCT116
[2] = system: ovarian cancer cells (PA-1); test: Cancer cell line growth inhibition (SRB assay); type: cell-based; settings: read-out: Cancer Cell Line GI50 Range PA-1
[3] = HCT116 colon cancer cells, SRB assay
[4] = PA-1 ovarian cancer cells, SRB assay

| SMILES | IC50 (human TTK) [µM] | GI50 [1, 3] [µM] | GI50 [2, 4] [µM] | GI50 [1] [µM] | GI50 ([2]; Homo sapiens, PA-1) [µM] |
| --- | --- | --- | --- | --- | --- |
| O=C(Nc1ccc2[nH]nc(-c3ccc(NC4CCC(O)CC4)cc3)c2c1)C(c1ccsc1)N1CCCC1 (single isomer, unassigned) [Example A105, rel-N-(3-(4-(((1r,4r)-4-hydroxycyclohexyl)amino)phenyl)-1H-indazol-5-yl)-2-(pyrrolidin-1-yl)-2-(thiophen-3-yl)acetamide] | < 0.1 | < 0.1 | < 0.1 |  |  |
| COc1ccc(NC(=O)Nc2ccc3[nH]nc(-c4ccc(OC5CCN(C)CC5)cc4)c3c2)c(C)c1 [Example A81, 1-(4-methoxy-2-methylphenyl)-3-(3-(4-((1-methylpiperidin-4-yl)oxy)phenyl)-1H-indazol-5-yl)urea] | 0.1 to 0.5 | 0.1 to 0.5 | 0.1 to 0.5 |  |  |
| CN1CCN(C(=O)c2cccc(-c3n[nH]c4ccc(NC(=O)C(c5ccsc5)N5CCCC5)cc34)c2)CC1 (stereo not shown) [Example A96, N-(3-(3-(4-Methylpiperazine-1-carbonyl)phenyl)-1H-indazol-5-yl)-2-(pyrrolidin-1-yl)-2-(thiophen-3-yl)acetamide] | > 0.5 | > 0.5 | > 0.5 |  |  |
| O=C(NC(c1ccccc1)C1CC1)c1ccc2[nH]nc(-c3ccc(N[C@H]4CC[C@H](O)CC4)cc3)c2c1 (stereo partly drawn) [Example A106, trans-N-(cyclopropyl(phenyl)methyl)-3-(4-(((1r,4r)-4-hydroxycyclohexyl)amino)phenyl)-1H-indazole-5-carboxamide] | < 0.1 | < 0.1 | < 0.1 |  |  |
| CC(C)(C)OC(=O)N1CCC(Oc2ccc(-c3n[nH]c4ccc(NC(=O)C(c5ccsc5)N5CCCC5)cc34)cc2)CC1 (stereo not shown) [Example A115, tert-butyl 4-(4-(5-(2-(pyrrolidin-1-yl)-2-(thiophen-3-yl)acetamido)-1H-indazol-3-yl)phenoxy)piperidine-1-carboxylate] | 0.1 to 0.5 | > 0.5 | > 0.5 |  |  |
| Cc1ccccc1CC1(NC(=O)c2ccc3[nH]nc(-c4ccc(OC5CCN(C)CC5)cc4)c3c2)CC1 [Example A127, N-(1-(2-methylbenzyl)cyclopropyl)-3-(4-((1-methylpiperidin-4-yl)oxy)phenyl)-1H-indazole-5-carboxamide] | < 0.1 | 0.1 to 0.5 | 0.1 to 0.5 |  |  |
| O=C(NC(c1ccccc1)C1CC1)c1ccc2[nH]nc(-c3ccc(OCCn4ccnc4)cc3)c2c1 (stereo not shown) [Example A165, 3-(4-(2-(1H-imidazol-1-yl)ethoxy)phenyl)-N-(cyclopropyl(phenyl)methyl)-1H-indazole-5-carboxamide] | < 0.1 | > 0.5 | > 0.5 |  |  |
| O=C(NC(c1ccccc1)C(F)F)c1ccc2[nH]nc(-c3ccc(OC4CCN(C5COC5)CC4)cc3)c2c1 (stereo not shown) [Example A226, N-(2,2-difluoro-1-phenylethyl)-3-(4-((1-(oxetan-3-yl)piperidin-4-yl)oxy)phenyl)-1H-indazole-5-carboxamide] | < 0.1 |  |  | 0.1 to 0.5 | 0.1 to 0.5 |
| C[C@@H](O)CN1CCC(Oc2ccc(-c3n[nH]c4ccc(C(=O)N[C@H](c5ccccn5)C5CCCC5)cc34)cc2)CC1 [Example A230, N-((S)-cyclopentyl(pyridin-2-yl)methyl)-3-(4-((1-((R)-2-hydroxypropyl)piperidin-4-yl)oxy)phenyl)-1H-indazole-5-carboxamide] | < 0.1 |  |  | < 0.1 | < 0.1 |
| CC(C)(O)CN1CCC(Oc2ccc(-c3n[nH]c4ccc(C(=O)N[C@H](c5ccccn5)C5CCCC5)cc34)cc2)CC1 [Example A231, (S)-N-(cyclopentyl(pyridin-2-yl)methyl)-3-(4-((1-(2-hydroxy-2-methylpropyl)piperidin-4-yl)oxy)phenyl)-1H-indazole-5-carboxamide] | < 0.1 |  |  | < 0.1 | < 0.1 |
| CC(C)[C@H](NC(=O)c1ccc2[nH]nc(-c3ccc(OC4CCN(CCO)CC4)cc3)c2c1)c1ccccc1Cl [Example A232, (S)-N-(1-(2-chlorophenyl)-2-methylpropyl)-3-(4-((1-(2-hydroxyethyl)piperidin-4-yl)oxy)phenyl)-1H-indazole-5-carboxamide] | < 0.1 |  |  | < 0.1 | < 0.1 |
| O=C(N[C@H](c1ccccn1)C1CCCC1)c1ccc2[nH]nc(-c3ccc(OC4CCN(CCO)CC4)cc3)c2c1 [Example A233, (S)-N-(cyclopentyl(pyridin-2-yl)methyl)-3-(4-((1-(2-hydroxyethyl)piperidin-4-yl)oxy)phenyl)-1H-indazole-5-carboxamide] | < 0.1 |  |  | < 0.1 | < 0.1 |
| CC(C)CC(NC(=O)c1ccc2[nH]nc(-c3ccc(OC4CCN(C5COC5)CC4)cc3)c2c1)c1ccccc1 (stereo not shown) [Example A290, N-(3-methyl-1-phenylbutyl)-3-(4-((1-(oxetan-3-yl)piperidin-4-yl)oxy)phenyl)-1H-indazole-5-carboxamide] | < 0.1 |  |  | 0.1 to 0.5 | 0.1 to 0.5 |
| CC(C)CC(NC(=O)c1ccc2[nH]nc(-c3ccc(OC4CCN(C5COC5)CC4)cc3)c2c1)c1ccccn1 (stereo not shown) [Example A291, N-(3-methyl-1-(pyridin-2-yl)butyl)-3-(4-((1-(oxetan-3-yl)piperidin-4-yl)oxy)phenyl)-1H-indazole-5-carboxamide] | < 0.1 |  |  | < 0.1 | < 0.1 |
| O=C(NCC1(N2CCCCC2)CCCCC1)c1ccc2[nH]nc(-c3ccc(N4CCOCC4)cc3)c2c1 [Example A446, 3-(4-morpholinophenyl)-N-((1-(piperidin-1-yl)cyclohexyl)methyl)-1H-indazole-5-carboxamide] | 0.1 to 0.5 | 0.1 to 0.5 |  |  |  |
| CN1CCN(C2(CNC(=O)c3ccc4[nH]nc(-c5ccc(N6CCOCC6)cc5)c4c3)CCCCC2)CC1 [Example A448, N-((1-(4-methylpiperazin-1-yl)cyclohexyl)methyl)-3-(4-morpholinophenyl)-1H-indazole-5-carboxamide] | < 0.1 | 0.1 to 0.5 |  |  |  |

Other lines, results leading:

| IC50 (human TTK) [µM] | GI50 [1, 3] [µM] | GI50 [2, 4] [µM] | GI50 [1] [µM] | GI50 ([2]; Homo sapiens, PA-1) [µM] | SMILES |
| --- | --- | --- | --- | --- | --- |
| < 0.1 | 0.1 to 0.5 | 0.1 to 0.5 |  |  | O=C(NCC1(N2CCOCC2)CCCC1)c1ccc2[nH]nc(-c3ccc(O[C@@H]4CCC[C@H](O)C4)cc3)c2c1 (relative stereo) [Example A496, rel-3-(4-(((1R,3S)-3-hydroxycyclohexyl)oxy)phenyl)-N-((1-morpholinocyclopentyl)methyl)-1H-indazole-5-carboxamide] |
| < 0.1 | 0.1 to 0.5 | 0.1 to 0.5 |  |  | O=C(NCC1(N2CCOCC2)CCCCC1)c1ccc2[nH]nc(-c3ccc(O[C@@H]4CCC[C@H](O)C4)cc3)c2c1 (relative stereo) [Example A497, cis-3-(4-(((1R,3S)-3-hydroxycyclohexyl)oxy)phenyl)-N-((1-morpholinocyclohexyl)methyl)-1H-indazole-5-carboxamide] |
| < 0.1 |  |  | 0.1 to 0.5 | 0.1 to 0.5 | O=C(NC(c1ccccn1)C1CCOCC1)c1ccc2[nH]nc(-c3ccc(OC4CCN(C5COC5)CC4)cc3)c2c1 (stereo not shown) [Example A293, 3-(4-((1-(oxetan-3-yl)piperidin-4-yl)oxy)phenyl)-N-(pyridin-2-yl(tetrahydro-2H-pyran-4-yl)methyl)-1H-indazole-5-carboxamide] |
| < 0.1 |  |  | 0.1 to 0.5 | 0.1 to 0.5 | CC(C)[C@H](NC(=O)c1ccc2[nH]nc(-c3ccc(OC4CCN(C5COC5)CC4)nc3)c2c1)c1ccccc1Cl [Example A294, (S)-N-(1-(2-chlorophenyl)-2-methylpropyl)-3-(6-((1-(oxetan-3-yl)piperidin-4-yl)oxy)pyridin-3-yl)-1H-indazole-5-carboxamide] |
| > 0.5 | > 0.5 |  |  |  | CN(C)C1(CNC(=O)c2ccc3[nH]nc(-c4ccc(N5CCOCC5)cc4)c3c2)CCCCC1 [Example A450, N-((1-(dimethylamino)cyclohexyl)methyl)-3-(4-morpholinophenyl)-1H-indazole-5-carboxamide] |
| 0.1 to 0.5 | > 0.5 |  |  |  | C[C@@H]1CN(C2(CNC(=O)c3ccc4[nH]nc(-c5ccc(N6CCOCC6)cc5)c4c3)CCCCC2)C[C@H](C)O1 [Example A451, N((1-((2S,6R)-2,6-dimethylmorpholino)cyclohexyl)methyl)-3-(4-morpholinophenyl)-1H-indazole-5-carboxamide] |
| < 0.1 | > 0.5 |  |  |  | C[C@@H]1CN(C2(CNC(=O)c3ccc4[nH]nc(-c5ccc(OC6CCN(C)CC6)cc5)c4c3)CCCCC2)C[C@H](C)O1 [Example A452, N-((1-((2S,6R)-2,6-dimethylmorpholino)cyclohexyl)methyl)-3-(4-((1-methylpiperidin-4-yl)oxy)phenyl)-1H-indazole-5-carboxamide] |
